# Measured values published in patent publication US8329707B2, “Substituted pyrazine compounds” (Astellas Pharma Inc., priority 2008, dated 2012).
# Tests used:
# [1] = test system: C57BL/6 mice after loading a high fat diet; test: Oral glucose tolerance test in mouse fed high fat diet; assay type: in vivo; settings: high fat diet about 30 days, fasted overnight, 1 mg/kg oral, glucose loading after 30 minutes, AUC lowering rate of blood glucose up to 2 hours vs solvent control
# Experimental: (§1) The test compound was dissolved in a solvent (5% Cremophor, aqueous 5% DMSO solution), and to a C57BL/6 mice after loading a high fat diet for about 30 days and then fasting overnight was orally administered 1 mg/kg of the test compound, and after 30 minutes, oral glucose loading was carried out. Immediately before the administration of the test compound, immediately before the glucose loading, and 0.25, 0.5, 1, and 2 hours after the glucose loading, blood was collected and blood glucose levels were measured. An AUC lowering rate (%) of the blood glucose levels from immediately before the glucose loading to 2 hours after the glucose loading with respect to that of the solvent control was calculated.
# SD rat = test: Oral glucose tolerance test in normal rat; assay type: in vivo; settings: SD rat fasted overnight; 1 mg/kg oral, glucose loading after 30 minutes; AUC lowering rate of blood glucose up to 2 hours vs solvent control
# Experimental: as §1, with “an SD rat” for “a C57BL/6 mice”, “after” for “after loading a high fat diet for about 30 days and then”, “and” for “and 0.25,”
# [2] = molecular target: T1, recombinant human hepatic type GK (GST-hGK2) (Homo sapiens, UniProt P35557); test: Measurement of glucokinase (GK) activation; assay type: biochemical; settings: 10 min; test compound final concentration 10 μM; 5 mM glucose; 27° C.; increase of absorbance at 340 nm during first 10 minutes vs DMSO; read-out: GK activation (%)
# T1 construct: made in house; host or cells: Escherichia coli BL21
# T1 sequence (P35557 1-466 isoform P35557-2): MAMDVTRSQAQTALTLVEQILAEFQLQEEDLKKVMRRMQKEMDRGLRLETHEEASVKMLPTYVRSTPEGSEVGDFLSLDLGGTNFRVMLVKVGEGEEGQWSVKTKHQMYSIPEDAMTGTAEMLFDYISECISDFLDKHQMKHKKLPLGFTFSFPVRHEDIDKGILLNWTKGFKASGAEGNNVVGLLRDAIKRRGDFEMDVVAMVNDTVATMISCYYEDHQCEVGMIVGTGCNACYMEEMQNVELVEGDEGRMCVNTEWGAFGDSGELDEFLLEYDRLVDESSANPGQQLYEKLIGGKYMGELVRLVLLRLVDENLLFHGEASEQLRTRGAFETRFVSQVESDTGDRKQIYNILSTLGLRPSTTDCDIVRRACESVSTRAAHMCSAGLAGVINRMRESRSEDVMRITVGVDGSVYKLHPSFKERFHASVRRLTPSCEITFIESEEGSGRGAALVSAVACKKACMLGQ
# Experimental: The present test was carried out in accordance with the method described in Science 301: 370-373, 2003 and with partial modification thereof. Hereinafter, the summary is described.
# First, the cloning of GK (GenBank No. AK122876) was carried out. 5′-[…]-3′(SEQ ID NO: 1) and 5′-[…]-3′(SEQ ID NO: 2) were used as primers, and pME18S-FL3-Glucokinase isoform 2 was used as a template to carry out PCR. The obtained reaction product was TA-cloned into a pGEM-T easy vector, digested with EcoRI and XhoI, and introduced to the pGEX-5X-1 vector digested in the same manner by ligation. By using this plasmid DNA (pGEX-human Glucokinase 2), a recombinant human hepatic type GK (GST-hGK2) fused with GST (Glutathione S-transferase) was expressed in Escherichia coli (BL21 strain) and purified by Glutathione Sepharose.
# The reaction of GK was carried out at 27° C. on a 96-well plate. First, 1 μL of the test compound (final concentration 10 μM) that has been diluted with dimethylsulfoxide (DMSO) was added to 89 μL of an enzyme mixed liquid (all final concentration 25 mM HEPES pH 7.4, 25 mM KCl, 2 mM MgCl2, 1 mM ATP, 0.1% BSA, 1 mM DTT, 1 mM NADP (nicotinamide adenine dinucleotide phosphate), 2.5 U/ml glucose-6-phosphate dehydrogenase, GST-hGK2 adjusted to ΔODCont of about 0.05 to 0.10). Subsequently, 10 μL of a substrate solution (final concentration 5 mM glucose) was added to start the reaction. In order to quantify a final product NADPH, an absorbance at a wavelength of 340 nm was measured, and the GK activation (%) of the test compound was calculated from the increase of absorbance during the first 10 minutes (ΔOD) after initiation of the reaction. GK activation (%)=[(ΔODTest)−(ΔODCont)]/(ΔODCont)×100
# ΔODTest: ΔOD at test compound
# ICR mouse = test: Oral glucose tolerance test in normal mouse; assay type: in vivo; settings: ICR mouse fasted overnight; 10 mg/kg oral, glucose loading after 30 minutes; AUC lowering rate of blood glucose up to 2 hours after glucose loading vs solvent control
# Experimental: as §1, with “to an ICR mouse” for “to a C57BL/6 mice”, “after” for “after loading a high fat diet for about 30 days and then”, “administered 10” for “administered 1”, “control group” for “control”
SMILES,Blood glucose lowering rate (%) [1],Blood glucose lowering rate (%) (SD rat),activation at 10 µM [2],inhibition in vivo at 10 mg/kg (ICR mouse)
"Cn1ccc(NC(=O)/C(=C/[C@H]2CCC(=O)C2)c2ccc(S(=O)(=O)C3CC3)c(C3CC3)c2)n1 [Example 4-1, (2E)-2-[3-cyclopropyl-4-(cyclopropylsulfonyl)phenyl]-N-(1-methyl-1H-pyrazol-3-yl)-3-[(1S)-3-oxocyclopentyl]acrylamide]",32%,25%,355%,39%
"O=C1CC[C@H](C[C@@H](C(=O)Nc2cnc(OCCO)cn2)c2ccc(S(=O)(=O)C3CC3)c(C3CC3)c2)C1 [Example 11, (2R)-2-[3-cyclopropyl-4-(cyclopropylsulfonyl)phenyl]-N-[5-(2-hydroxyethoxy)pyrazin-2-yl]-3-[(1R)-3-oxocyclopentyl]propanamide]",,20%,433%,50%
"O=C1CC[C@H](C[C@@H](C(=O)Nc2cnc(CO)cn2)c2ccc(S(=O)(=O)C3CC3)c(C3CC3)c2)C1 [Example 15, (2R)-2-[3-cyclopropyl-4-(cyclopropylsulfonyl)phenyl]-N-[5-(hydroxymethyl)pyrazin-2-yl]-3-[(1R)-3-oxocyclopentyl]propanamide]",,22%,284%,49%
"Cn1ccc(NC(=O)/C(=C/[C@H]2CC[C@H](O)C2)c2ccc(S(=O)(=O)C3CC3)c(C3CC3)c2)n1 [Example 22-1, 2(E)-[3-cyclopropyl-4-(cyclopropylsulfonyl)phenyl]-3-[(1S,3S)-3-hydroxycyclopentyl]-N-(1-methyl-1H-pyrazol-3-yl)acrylamide]",,27%,197%,55%
"Cn1ccc(NC(=O)/C(=C/[C@H]2CC[C@@H](O)C2)c2ccc(S(=O)(=O)C3CC3)c(C3CC3)c2)n1 [Example 22-2, 2(E)-[3-cyclopropyl-4-(cyclopropylsulfonyl)phenyl]-3-[(1S,3R)-3-hydroxycyclopentyl]-N-(1-methyl-1H-pyrazol-3-yl)acrylamide]",,25%,199%,52%
Cc1cnc(NC(=O)/C(=C/[C@H]2CCC(=O)C2)c2ccc(S(=O)(=O)C3CC3)c(C3CC3)c2)cn1 [Example 36],43%,40%,332%,45%
Cc1cnc(NC(=O)[C@H](C[C@H]2CCC(=O)C2)c2ccc(S(=O)(=O)C3CC3)c(C3CC3)c2)cn1 [Example 55],,,315%,56%
O=C1CC[C@H](C[C@@H](C(=O)Nc2cnc(Cl)cn2)c2ccc(S(=O)(=O)C3CC3)c(C3CC3)c2)C1 [Example 70],,,282%,60%
COc1cnc(NC(=O)[C@H](C[C@H]2CCC(=O)C2)c2ccc(S(=O)(=O)C3CC3)c(C3CC3)c2)cn1 [Example 72],,,311%,59%
Cc1cnc(NC(=O)[C@H](C[C@H]2CCC(O)C2)c2ccc(S(=O)(=O)C3CC3)c(C3CC3)c2)cn1 (stereo partly drawn) [Example 78],,,273%,50%
COc1cnc(NC(=O)[C@H](C[C@H]2CCC(O)C2)c2ccc(S(=O)(=O)C3CC3)c(C3CC3)c2)cn1 (stereo partly drawn) [Example 79],,,297%,45%
CC(O)c1cnc(NC(=O)[C@H](C[C@H]2CCC(=O)C2)c2ccc(S(=O)(=O)C3CC3)c(C3CC3)c2)cn1 (stereo partly drawn) [Example 83],,17%,345%,51%
